We go through 9 compounds from patent US5238832A, “Aryl aliphatic acids” (Board of Governors of Wayne State University, priority 1992, dated 1993).

Molecules are shown by their SMILES.

In this experiment the target is T1, 12-lipoxygenase (Sus scrofa, UniProt P16469).
T1 construct: porcine leukocyte cytosol containing 12-lipoxygenase; from tissue; host or cells: porcine leukocyte cytosol
T1 sequence (P16469 1-663): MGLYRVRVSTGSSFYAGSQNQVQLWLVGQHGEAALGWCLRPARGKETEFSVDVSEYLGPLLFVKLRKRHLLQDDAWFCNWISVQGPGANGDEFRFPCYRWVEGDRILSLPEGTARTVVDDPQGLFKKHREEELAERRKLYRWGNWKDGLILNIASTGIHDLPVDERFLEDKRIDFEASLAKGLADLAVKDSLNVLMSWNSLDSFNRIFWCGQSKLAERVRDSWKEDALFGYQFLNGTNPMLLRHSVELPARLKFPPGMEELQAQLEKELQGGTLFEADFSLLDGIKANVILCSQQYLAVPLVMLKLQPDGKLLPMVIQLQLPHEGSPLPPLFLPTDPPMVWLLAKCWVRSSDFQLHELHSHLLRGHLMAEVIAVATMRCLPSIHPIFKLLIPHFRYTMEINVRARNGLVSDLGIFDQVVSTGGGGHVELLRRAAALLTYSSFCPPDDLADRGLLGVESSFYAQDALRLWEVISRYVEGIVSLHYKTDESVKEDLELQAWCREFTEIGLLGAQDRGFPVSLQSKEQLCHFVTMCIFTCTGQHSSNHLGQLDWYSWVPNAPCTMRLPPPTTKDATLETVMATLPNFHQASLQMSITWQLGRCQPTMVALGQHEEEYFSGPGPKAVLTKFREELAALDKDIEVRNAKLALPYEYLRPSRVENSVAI
Put plainly: Inhibition of 12-lipoxygenase activity by aryl aliphatic acids (porcine leukocyte cytosol, conversion of [1-14C] arachidonic acid to 12-HETE). Type of experiment: biochemical. To be noted: porcine leukocyte cytosol 0.075 mg/ml protein; 0.1 M HEPES, pH 8.0; 5 min preincubation, 15 min at 37° C.; arachidonic acid given as 5 mM. Here is the method:
The standard assay procedure is as follows: […] [1^-14 C] Arachidonic acid was added (final concentration of […]) and the reactions were incubated for 15 minutes at 37° C. and terminated by the addition of HCl. […] Samples were extracted with water-saturated ethyl acetate and the extracts were spotted onto TLC plates. The plates were developed with dichloromethane/ethyl acetate/acetic acid in a ratio of 70:30:1. […] The percentage conversion to 12-HETE was calculated from the percentage of the total ^14 C on the TLC plate that coelutes with a standard of 12-HETE.

Take `CCCCCCCCCCC#CCOCc1ccc(CCC(=O)O)cc1` [Compound 24, 3-[4-(2-Tridecynyloxymethyl)phenyl]propanoic Acid]: the half-maximal inhibitory concentration (IC50) (usually the concentration that gives 50% inhibition) is 0.035 µM.

As to `CCCCCCC#CCOCc1ccc(CCC(=O)O)cc1` [Compound 25, 3-[4-(2-Nonynyloxymethyl)phenyl]propanoic Acid], the IC50 came to 2 µM.

Regarding `CCCCCCCCC#CCOCc1ccc(CCC(=O)O)cc1` [Compound 26, 3-[4-(2-Undecynyloxymethyl)phenyl]propanoic Acid], the IC50 turned out to be 0.1 µM.

For the compound `CCCCCCCCCCCCC#CCOCc1ccc(CCC(=O)O)cc1` [Compound 27, 3-[4-(2-Pentadecynyloxymethyl)phenyl]propanoic Acid], the 50% inhibitory concentration (IC50) amounted to 0.32 µM.

Turning to `CCCCCCCCCCc1ccc(COCc2ccc(CCC(=O)O)cc2)cc1` [Compound 30, 3-[4-[4-(Decylphenylmethyl)oxymethyl]phenyl]propanoic Acid], the IC50 stood at 5 µM.

In the case of `CCCCCCCCCC/C=C\COCc1ccc(CCC(=O)O)cc1` [Compound 31, cis-3-[4-(2-Tridecenyloxymethyl)-phenyl]propanoic Acid], the IC50 amounted to 1 µM.

In the case of `CCCCCCCCCC/C=C/COCc1ccc(CCC(=O)O)cc1` [Compound 32, trans-3-[4-(2-Tridecenyloxymethyl)phenyl]propanoic Acid], the IC50 worked out at 0.4 µM.

`CCCCCCCCCCC=C=CCOCc1ccc(CCC(=O)O)cc1` [Compound 34, (S)-(+)-3-[4-(2,3-Tetradecadienyloxymethyl)phenyl]propanoic Acid]: the IC50 amounted to 0.28 µM.

Turning to `CCCCCCCCCCC=C=CCOCc1ccc(CCC(=O)O)cc1` [Compound 35, (R)-3-[4-(2,3-Tetradecadienyloxymethyl)], the 50% inhibitory concentration (IC50) is 0.45 µM.
